pIC50: −log10 of the molar value. Like-named read-outs stand apart in the source and are kept apart here.
Experiments:
Rat Recombinant LOXL2 = target: T1, Rat Recombinant LOXL2 (Rattus norvegicus, UniProt B5DF27); experiment: Amine oxidase inhibition profile, rat LOXL2; format: biochemical
T1 construct: made in house; host or cells: HEK-293 clones (provided by Dr. Fernando Rodríguez Pascual)
T1 sequence (B5DF27 26-776): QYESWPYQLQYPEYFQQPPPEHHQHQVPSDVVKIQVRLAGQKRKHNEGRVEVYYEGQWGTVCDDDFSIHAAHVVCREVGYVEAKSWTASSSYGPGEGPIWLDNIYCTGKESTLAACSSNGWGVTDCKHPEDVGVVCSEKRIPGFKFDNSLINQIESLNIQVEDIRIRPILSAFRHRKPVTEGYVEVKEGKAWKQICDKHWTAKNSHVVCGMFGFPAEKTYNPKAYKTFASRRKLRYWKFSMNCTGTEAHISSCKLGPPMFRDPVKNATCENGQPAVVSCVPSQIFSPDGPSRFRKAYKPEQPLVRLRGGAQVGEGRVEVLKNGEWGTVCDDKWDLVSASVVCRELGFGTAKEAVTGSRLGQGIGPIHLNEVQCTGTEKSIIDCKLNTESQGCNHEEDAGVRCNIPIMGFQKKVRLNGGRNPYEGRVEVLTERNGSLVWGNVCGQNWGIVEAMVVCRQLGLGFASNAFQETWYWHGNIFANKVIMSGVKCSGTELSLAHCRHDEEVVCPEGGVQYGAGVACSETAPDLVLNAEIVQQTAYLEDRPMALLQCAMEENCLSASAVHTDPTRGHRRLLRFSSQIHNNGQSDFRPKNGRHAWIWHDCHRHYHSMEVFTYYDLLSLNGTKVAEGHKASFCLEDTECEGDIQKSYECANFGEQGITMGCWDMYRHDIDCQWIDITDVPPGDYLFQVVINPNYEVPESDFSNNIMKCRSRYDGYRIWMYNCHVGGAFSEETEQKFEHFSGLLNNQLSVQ

recombinant human LOXL4 = target: T2, recombinant human LOXL4 (Homo sapiens, UniProt Q96JB6); experiment: Amplex Red oxidation assay, LOXL4 inhibition; format: biochemical; conditions: for pIC50: 30 min pre-incubation, read-out: rh LOXL4 IC50; for IC50: read-out: Human Recombinant LOXL4 pIC50±SD (converted)
T2 construct: Dr. Fernando Rodríguez Pascual, university of Madrid, Spain (academic provider)
T2 sequence (Q96JB6 25-756): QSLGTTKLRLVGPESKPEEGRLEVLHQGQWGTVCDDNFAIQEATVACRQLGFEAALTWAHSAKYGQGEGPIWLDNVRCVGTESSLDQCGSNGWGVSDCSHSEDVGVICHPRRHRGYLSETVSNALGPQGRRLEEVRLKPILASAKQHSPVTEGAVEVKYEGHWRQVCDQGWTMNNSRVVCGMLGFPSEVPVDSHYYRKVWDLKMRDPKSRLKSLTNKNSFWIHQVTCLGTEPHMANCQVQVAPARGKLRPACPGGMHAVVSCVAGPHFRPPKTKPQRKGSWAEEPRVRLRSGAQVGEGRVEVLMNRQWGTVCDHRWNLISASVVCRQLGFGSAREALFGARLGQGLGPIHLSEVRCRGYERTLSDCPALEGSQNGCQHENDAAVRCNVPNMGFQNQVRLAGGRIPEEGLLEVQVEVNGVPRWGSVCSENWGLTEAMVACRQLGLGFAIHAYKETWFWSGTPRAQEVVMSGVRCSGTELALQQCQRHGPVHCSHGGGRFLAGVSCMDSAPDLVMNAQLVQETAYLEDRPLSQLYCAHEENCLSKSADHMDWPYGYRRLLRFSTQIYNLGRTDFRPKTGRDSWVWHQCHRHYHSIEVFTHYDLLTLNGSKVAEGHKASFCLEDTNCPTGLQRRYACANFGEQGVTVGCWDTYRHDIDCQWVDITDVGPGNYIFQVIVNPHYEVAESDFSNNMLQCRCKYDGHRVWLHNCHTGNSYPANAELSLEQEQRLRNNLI
Procedure: The measurement of the enzymatic activity of all lysyl oxidase family members was based on the detection of hydrogen peroxide with an Amplex-Red oxidation assay, as previously described; miniaturized in 384 well formats, with the appropriate combination of substrate and assay buffer for each individual enzyme. After a 30 min pre-incubation of the enzyme at 37 °C with the test compound (or with different incubation times for the time-dependency assay), one volume of reaction mixture containing 120 μM Amplex Red (AR) (Life Technologies), 1.5 U/mL horseradish peroxidase (HRP) (Sigma-Aldrich) and the specific substrate was added to each sample. The relative fluorescence units (RFU) were then measured every 2.5 min for 30 min at 37 °C, excitation 565 nm and emission 590, on a BMG Clariostar Microplate Reader. All the substrates were used at concentrations corresponding to their Km towards the corresponding enzyme, or with a range of different concentrations for the substrate competition experiments.
Lysyl oxidases assay buffer contained 1.2 M urea, 50 mM sodium borate buffer, pH 8.2 and 100 µM β-aminoproprionitrile (BAPN, Sigma-Aldrich) was used for low control.
Recombinant human LOXL1 was expressed and purified from cDNA (GeneArt) and 10 mM putrescine was used as substrate. Recombinant human and mouse LOXL2 (R&D Systems) were challenged with 5 mM putrescine (Sigma-Aldrich) as the substrate. Rat and dog recombinant LOXL2 were amplified and purified in house from HEK-293 clones kindly provided by Dr. Fernando Rodríguez Pascual, Madrid University, and used in the same conditions as for the human form. 2 mM putrescine was used as the substrate for recombinant human LOXL3 (R&D Systems) and LOXL4 (Dr. Fernando Rodríguez Pascual, university of Madrid, Spain) assays.

| SMILES | pIC50 (Rat Recombinant LOXL2) | Rat Recombinant LOXL2 pIC50±SD (Rat Recombinant LOXL2) | Human Recombinant LOXL4 pIC50±SD (recombinant human LOXL4) | pIC50 (recombinant human LOXL4) | inhibition at 30 µM (recombinant human LOXL4; log conc -4.5229, read-out: Fig 2A inhibition (mean)) | inhibition at 10 µM (recombinant human LOXL4; log conc -5, read-out: Fig 2A inhibition (mean)) | inhibition at 3.333 µM (recombinant human LOXL4; log conc -5.4771, read-out: Fig 2A inhibition (mean)) | inhibition at 1.111 µM (recombinant human LOXL4; log conc -5.9542, read-out: Fig 2A inhibition (mean)) | inhibition at 0.3704 µM (recombinant human LOXL4; log conc -6.4313, read-out: Fig 2A inhibition (mean)) | inhibition at 0.1235 µM (recombinant human LOXL4; log conc -6.9083, read-out: Fig 2A inhibition (mean)) | inhibition at 0.0412 µM (recombinant human LOXL4; log conc -7.3851, read-out: Fig 2A inhibition (mean)) | inhibition at 0.0137 µM (recombinant human LOXL4; log conc -7.8633, read-out: Fig 2A inhibition (mean)) | inhibition at 0.0046 µM (recombinant human LOXL4; log conc -8.3372, read-out: Fig 2A inhibition (mean)) | inhibition at […] (recombinant human LOXL4; log conc -8.8239, read-out: Fig 2A inhibition (mean)) | inhibition at 0.0005 µM (recombinant human LOXL4; log conc -9.301, read-out: Fig 2A inhibition (mean)) | IC50 (recombinant human LOXL4) |
| --- | --- | --- | --- | --- | --- | --- | --- | --- | --- | --- | --- | --- | --- | --- | --- | --- |
| N#CCCN [BAPN, β-aminoproprionitrile, reference compound] | 6.19 | 6.2 ± 0.2 | 6.6 ± 0.1 | 6.55 |  |  |  |  |  |  |  |  |  |  |  |  |
| NC/C=C(\F)CS(=O)(=O)c1ccccc1 [PXS-4787] | 6.23 |  |  | 6.66 | 102% | 101% | 98.6% | 89.8% | 66.3% | 36.5% | 14.1% | 8.84% | 2.39% | 0.738% | -0.645% | 200 nM |
| NC/C=C(\F)C(F)(F)S(=O)(=O)c1ccccc1 [PXS-6302] | 6.37 |  |  | 6.49 |  |  |  |  |  |  |  |  |  |  |  | 316 nM |
